From patent US20250066360A1, “PYRIDINE-CONTAINING POLYCYCLIC DERIVATIVE, AND PREPARATION METHOD THEREFOR AND USE THEREOF” (SHANGHAI HANSOH BIOMEDICAL CO., LTD., priority 2022, published 2025) come the findings set out here.

The structures appear in SMILES notation.

The target in one assay is T1, p38α/MK2 (Homo sapiens, UniProt P49137+Q16539).
T1 construct: purchased R & D systems (p38 alpha); Thermo (MK2) 5477-KS-010; PV3316
The experiment in a line: Inhibition of p38α/MK2 enzyme activity (TR-FRET, ULight-CREBtide). Type of assay: biochemical. As to conditions: for IC50: 0.06 nM p38a, 1.2 nM MK2, 25 μM ATP, read-out: p38/MK2 IC50; for Selectivity ratio (p38 IC50 / p38/MK2 IC50): selectivity ratio p38 IC50 over p38/MK2 IC50. On the procedure:
(§1) 50 nM ULight-CREBtide and 25 μM ATP (ATP Solution) were added, and the mixture was reacted at room temperature for 1.5 hours. An equal volume of a detection and termination mixed solution (1×LANCE detection buffer containing 20 mM EDTA and 2 nM Europium-anti-phospho-CREB) was added, the mixture was mixed until uniform and centrifuged, a plate sealing film was attached, and a reaction was performed at room temperature for 1 hour. TR-FRET program of the EnVision instrument was used to read the plate, and the fluorescence value of each well was detected at 665 nm/615 nm.
(§2) Calculation was performed on the raw data (665 nm/615 nm reading ratio) according to the following formula to obtain the inhibition rate. Inhibition rate %=[(mean value in positive control well−value in sample well)/(mean value in positive control well−mean value in negative control well)]×100, wherein the positive control well was a reaction well without a compound […], and the negative control well was a reaction wells without an enzyme.
(§3) Log(inhibitor) vs. response−Variable slope (four parameters) in GraphPad Prism 6 was used for fitting equation analysis of the compound concentration and the corresponding inhibition rate, and the curve was fitted to obtain the IC50 value of the compound.
(§4) The fitting calculation equation was Y=Bottom+(Top−Bottom)/(1+10^((Log IC50−X)*HillSlope)).
In general terms: Time-resolved FRET reads energy transfer from a long-lived donor to a nearby acceptor.

For assay [1], the target named is T2, p38a (Active p38 alpha Protein) (Homo sapiens, UniProt Q16539).
T2 construct: purchased R & D systems 5477-KS-010
T2 sequence (Q16539 whole entry): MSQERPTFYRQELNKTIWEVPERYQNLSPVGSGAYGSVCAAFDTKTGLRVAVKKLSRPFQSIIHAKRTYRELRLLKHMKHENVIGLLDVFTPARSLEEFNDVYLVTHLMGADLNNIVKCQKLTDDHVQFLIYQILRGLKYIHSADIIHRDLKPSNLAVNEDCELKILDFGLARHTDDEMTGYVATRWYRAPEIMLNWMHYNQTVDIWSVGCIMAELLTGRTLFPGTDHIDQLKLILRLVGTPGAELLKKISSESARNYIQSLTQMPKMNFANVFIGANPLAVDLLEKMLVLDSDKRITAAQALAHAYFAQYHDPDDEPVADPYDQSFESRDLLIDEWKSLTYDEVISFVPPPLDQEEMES
The experiment in a line: Inhibition of p38 enzyme activity (TR-FRET, ULight-MBP). Format: biochemical. The following applies: 3 nM p38a, 50 μM ATP. On the procedure: as §1, with “Experimental method for determining the p38 enzyme activity: 3 nM p38a (Active p38 alpha Protein) and compounds diluted in a certain concentration gradient were incubated in 1× enzyme reaction buffer (50 mM HEPES pH 7.5, 1 mM EGTA, 10 mM MgCl2, 2 mM DTT, 0.01% Tween-20) for 1 hour. 50” for “50”, “ULight-MBP” for “ULight-CREBtide”, “50” for “25”, “(ATP 10 mM” for “(ATP”, “Europium-anti-P-MBP)” for “Europium-anti-phospho-CREB)”
as §2, §3, §4

A further assay relates to p-Hsp27 in U937 cells. The experiment in a line: Inhibition of p-Hsp27 in LPS-stimulated U937 cells (ELISA). Format: cell-based. The following applies: Homo sapiens, U-937; PMA-differentiated U937, 10 ng/ml LPS 0.5 hours; read-out: U937 cell activity test p-HSP27 IC50. The procedure:
U937 cells were treated with 20 ng/ml PMA for differentiation overnight, and after replacement with a fresh culture medium, the U937 cells were rested overnight. After differentiation, the U937 cell were digested and counted, and 25,000 cells per well were seeded in a 96-well plate until the cells adhered to the wall. A compound concentration gradient was prepared, the cells were pretreated with the compound for 1 hour (the highest final concentration of the compound was 1 μM, diluted in 3-fold concentration gradient), and 10 ng/ml LPS (Lipopolysaccharides from Escherichia coli O111:B4) was added for stimulation for 0.5 hours. After the cells were washed with PBS, the cells were lysed with a lysis solution. p-Hsp27 in the cell lysate was detected by using Phospho-HSP27 (S78/S82) DuoSet IC ELISA kit. For specific steps, reference could be made to the standard steps provided by the kit manufacturer.
Calculation of p-Hsp27 inhibition rate: Inhibition rate %=[(mean value of p-Hsp27 in positive control well−mean value of p-Hsp27 in sample well)/(mean value of p-Hsp27 in positive control well−mean value of p-Hsp27 in negative control well)]×100%, wherein the positive control well was a well without a compound (DMSO-treated well), and the negative control well was a well without LPS stimulation.
Dose response curve fitting: Log(inhibitor) vs. response−Variable slope (four parameters) in GraphPad Prism 6 was used for fitting equation analysis of the compound concentration and the corresponding inhibition rate, and the curve was fitted to obtain the IC50 value of the compound.
as §4
In general terms: In an ELISA, binding on a coated surface is turned into a signal by an enzyme label.

A further assay concerns TNF-α in U937 cells. The experiment in a line: Inhibition of the expression level of TNF-α in LPS-stimulated U937 cells (ELISA). Format: cell-based. As to conditions: Homo sapiens, U-937; PMA-differentiated U937, 10 ng/ml LPS 4 hours; read-out: U937 cell activity test TNF-α IC50. On the procedure: U937 cells were treated with 20 ng/ml PMA for differentiation overnight, and after replacement with a fresh culture medium, the U937 cells were rested overnight. After differentiation, the U937 cells were digested and counted, and 50,000 cells per well were seeded in a 96-well plate until the cells adhered to the wall. A compound concentration gradient was prepared, the cells were pretreated with the compound for 1 hour (the highest final concentration of the compound was 1 μM, diluted in 3-fold concentration gradient), and 10 ng/ml LPS (Lipopolysaccharides from Escherichia coli O111:B4) was added for stimulation for 4 hours. Thereafter, the culture supernatant was collected by centrifugation and used for subsequent ELISA to detect the concentration of TNF-α in the supernatant. The concentration of TNF-α was detected according to the standard steps provided by the ELISA kit manufacturer.
A standard curve was plotted by a linear regression method from a TNF-α standard, and the concentration of TNF-α in a sample was derived by conversion according to the standard curve.
Calculation of inhibition rate: Inhibition rate %=[(mean value of TNF-α concentration in positive control well−mean value of TNF-α concentration in sample well)/(mean value of TNF-α concentration in positive control well−mean value of TNF-α concentration in negative control well)]×100%, wherein the positive control well was a well without a compound (DMSO-treated well), and the negative control well was a culture medium well.
Dose response curve fitting: Log(inhibitor) vs. response−Variable slope (four parameters) in GraphPad Prism 6 was used for fitting equation analysis of the compound concentration and the corresponding inhibition rate, and the curve was fitted to obtain the IC50 value of the compound. The fitting calculation equation was Y=Bottom+(Top−Bottom)/(1+10^((Log IC50−X)*HillSlope)).

T1 sequence (Q16539 whole entry): as above
T1 sequence (P49137 whole entry): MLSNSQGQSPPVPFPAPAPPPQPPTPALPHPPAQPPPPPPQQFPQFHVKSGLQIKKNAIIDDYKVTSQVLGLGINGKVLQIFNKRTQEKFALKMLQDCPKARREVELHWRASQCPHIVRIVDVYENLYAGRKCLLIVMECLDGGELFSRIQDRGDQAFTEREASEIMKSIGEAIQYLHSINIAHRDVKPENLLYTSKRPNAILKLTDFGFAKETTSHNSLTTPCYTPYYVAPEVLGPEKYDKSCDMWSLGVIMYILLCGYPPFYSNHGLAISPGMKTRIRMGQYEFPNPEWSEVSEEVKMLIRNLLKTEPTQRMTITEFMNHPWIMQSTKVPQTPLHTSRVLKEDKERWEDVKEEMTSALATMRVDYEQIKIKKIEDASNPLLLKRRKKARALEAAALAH

As for `[2H]C([2H])(Oc1cc2n(c(=O)c1Cl)-c1cc(-n3cc(F)c(C(C)(C)NC(C)=O)n3)ncc1/C=C\CC2)c1ncc(F)cc1F` [Example 18-1, (S,Z)—N-(2-(1-(11-chloro-10-((3,5-difluoropyridin-2-yl)methoxy-d2)-12-carbonyl-8,12-dihydro-7H-dipyrido[1,2-a:3′,4′-g]azocin-2-yl)-4-fluoro-1H-pyrazol-3-yl)propan-2-yl)acetamide], at p38α/MK2, the IC50 came to 0.12 nM.
With `[2H]C([2H])(Oc1cc(C)n(-c2cc(-n3cccc(C(C)(C)NC(C)=O)c3=O)ncc2C)c(=O)c1Cl)c1ncc(F)cc1F` [Example 5-1, (S)—N-(2-(3″-chloro-4″-((3,5-difluoropyridin-2-yl)methoxy-d2)-5′,6″-dimethyl-2,2″-dicarbonyl-2H,2″H-[1,2′:4′,1″-terpyridin]-3-yl)propan-2-yl)acetamide], the figures for the IC50 (in assay [1]; at p38α/MK2) were 526 nM and 0.79 nM, respectively. In addition, the “Selectivity ratio (p38 IC50 / p38/MK2 IC50)” value at p38α/MK2 is 666.
As to `[2H]C([2H])(Oc1cc2n(c(=O)c1Cl)-c1cc(-c3ccnc(C(C)(C)O)n3)ncc1CCCC2)c1ncc(F)cc1F` [Example 1-1, (S)-11-Chloro-10-((3,5-difluoropyridin-2-yl)methoxy-d2)-2-(2-(2-hydroxypropan-2-yl)pyrimidin-4-yl)-5,6,7,8-tetrahydro-12H-dipyrido[1,2-a:3′,4′-g]azol-12-one], the IC50 turned out to be 0.17 nM in the assay on p-Hsp27 in U937 cells, 77.4 nM in assay [1], 0.71 nM at p38α/MK2 and 1.2 nM in the assay with TNF-α in U937 cells. The “Selectivity ratio (p38 IC50 / p38/MK2 IC50)” value at p38α/MK2 is 109.
On to `[2H]C([2H])(Oc1cc(C)n(-c2cc(-n3cccc(C(C)(C)O)c3=O)ncc2C)c(=O)c1Cl)c1ncc(F)cc1F` [Example 11-1, (S)-3″-chloro-4″-((3,5-difluoropyridin-2-yl)methoxy-d2)-3-(2-hydroxypropan-2-yl)-5′,6″-dimethyl-2H,2″H-[1,2′:4′,1″-terpyridine]-2,2″-dione], for which the IC50 was 0.1 nM in the assay on p-Hsp27 in U937 cells, 96.9 nM in assay [1], 0.28 nM on p38α/MK2 and 0.21 nM in the assay on TNF-α in U937 cells. The “Selectivity ratio (p38 IC50 / p38/MK2 IC50)” value at p38α/MK2 was 346.
Turning to `[2H]C([2H])(Oc1cc2n(c(=O)c1Cl)-c1cc(-n3cccc(C(C)(C)O)c3=O)ncc1/C=C\CC2)c1ncc(F)cc1F` [Example 19-1, (S,Z)-11-chloro-10-((3,5-difluoropyridin-2-yl)methoxy-d2)-2-(3-(2-hydroxypropan-2-yl)-2-carbonylpyridin-1(2H)-yl)-7,8-dihydro-12H-dipyrido[1,2-a:3′,4′-g]azocin-12-one], on p38α/MK2, the IC50 came out at 0.12 nM.
With `[2H]C([2H])(Oc1cc(C)n(-c2cc(-n3cccc(C(C)(C)O)c3=O)ncc2Cl)c(=O)c1Cl)c1ncc(F)cc1F` [Example 10-1, (S)-3″,5′-dichloro-4″-((3,5-difluoropyridin-2-yl)methoxy-d2)-3-(2-hydroxypropan-2-yl)-6″-methyl-2H,2″H-[1,2′:4′,1″-terpyridine]-2,2″-dione], the IC50 in the assay with p-Hsp27 in U937 cells turned out to be 0.13 nM; at p38α/MK2 it was 0.13 nM; in the assay on TNF-α in U937 cells it was 0.1 nM.
Turning to `[2H]C([2H])(Oc1cc2n(c(=O)c1Cl)-c1cc(-n3ccc(C(C)(C)O)n3)ncc1CCCC2)c1ncc(F)cc1F` [Example 2-1, (S)-11-chloro-10-((3,5-difluoropyridin-2-yl)methoxy-d2)-2-(3-(2-hydroxypropan-2-yl)-1H-pyrazol-1-yl)-5,6,7,8-tetrahydro-12H-dipyrido[1,2-a:3′,4′-g]azol-12-one], the figures for the IC50 with p-Hsp27 in U937 cells, at p38α/MK2 and with TNF-α in U937 cells were 0.28 nM, 0.42 nM and 0.33 nM, respectively.
In the case of `[2H]C([2H])(Oc1cc2n(c(=O)c1Cl)-c1cc(-c3ccnc(C(C)(C)NC(C)=O)n3)ncc1CCCC2)c1ncc(F)cc1F` [Example 4-1, (S)—N-(2-(4-(11-chloro-10-((3,5-difluoropyridin-2-yl)methoxy-d2)-12-carbonyl-6,7,8,12-tetrahydro-5H-dipyrido[1,2-a:3′,4′-g]azocin-2-yl)pyrimidin-2-yl)propan-2-yl)acetamide], the IC50 in the assay with p-Hsp27 in U937 cells was determined as 0.35 nM; in the assay on TNF-α in U937 cells, 1.2 nM.
In the case of `[2H]C([2H])(Oc1cc2n(c(=O)c1Cl)-c1cc(-c3ccnc(C(C)(C)O)n3)ncc1/C=C\CC2)c1ncc(F)cc1F` [Example 16-1, (S,Z)-11-chloro-10-((3,5-difluoropyridin-2-yl)methoxy-d2)-2-(2-(2-hydroxypropan-2-yl)pyrimidin-4-yl)-7,8-dihydro-12H-dipyrido[1,2-a:3′,4′-g]azocin-12-one], the IC50 in the assay with p-Hsp27 in U937 cells amounted to 0.28 nM; on p38α/MK2, 0.49 nM; with TNF-α in U937 cells, 0.85 nM.
Regarding `[2H]C([2H])(Oc1cc2n(c(=O)c1Cl)-c1cc(-n3ccc(C(C)(C)O)n3)ncc1/C=C\CC2)c1ncc(F)cc1F` [Example 17-1, (S,Z)-11-chloro-10-((3,5-difluoropyridin-2-yl)methoxy-d2)-2-(3-(2-hydroxypropan-2-yl)-1H-pyrazol-1-yl)-7,8-dihydro-12H-dipyrido[1,2-a:3′,4′-g]azocin-12-one], the IC50 on p38α/MK2 came to 0.27 nM.
As to `[2H]C([2H])(Oc1cc2n(c(=O)c1Cl)-c1cc(-n3cc(F)c(C(C)(C)NC(C)=O)n3)ncc1CCCC2)c1ncc(F)cc1F` [Example 3-1, (S)—N-(2-(1-(11-chloro-10-((3,5-difluoropyridin-2-yl)methoxy-d2)-12-carbonyl-6,7,8,12-tetrahydro-5H-dipyrido[1,2-a:3′,4′-g]azocin-2-yl)-4-fluoro-1H-pyrazol-3-yl)propan-2-yl)acetamide], the IC50 in the assay on p-Hsp27 in U937 cells is 0.15 nM; on p38α/MK2, 0.18 nM; with TNF-α in U937 cells it was 0.18 nM.
With `[2H]C([2H])(Oc1cc2n(c(=O)c1Cl)-c1c(cnc(-n3ccc(C(C)(C)O)n3)c1F)CCCC2)c1ncc(F)cc1F` [Example 8-1, (R)-11-chloro-10-((3,5-difluoropyridin-2-yl)methoxy-d2)-1-fluoro-2-(3-(2-hydroxypropan-2-yl)-1H-pyrazol-1-yl)-5,6,7,8-tetrahydro-12H-dipyrido[1,2-a:3′,4′-g]azocin-12-one], the IC50 in the assay on p-Hsp27 in U937 cells came to 0.22 nM; on p38α/MK2, 0.25 nM; in the assay with TNF-α in U937 cells, 0.19 nM.
